Data from patent US10597696B2, “Detection of Niemann-Pick disease comprising detection of lysozyme and cathepsins” (UNIVERSITY OF NOTRE DAME DU LAC, priority 2013, dated 2020).
“Also recorded” adds a separate entry of the source.

Columns and labels:
Npc1^nih mice [1] = conditions: cited from earlier work
Npc1^pf/pf mice = conditions: weekly injections to Npc1^pf/pf mice, previous study; cited from earlier work
[2] = system: Npc1^nih Npc1^−/− mouse brain; assay: Immunohistochemistry of brain sections after HPβCD; assay type: in vivo; conditions: immunofluorescence
Procedure: (§1) Mice were sacrificed by asphyxiation using CO2. The circulatory bed was washed with PBS (pH 7.4), and subsequently perfused with 10% neutral buffered formalin (˜4% formaldehyde). The organs (brain and liver) were surgically harvested and stored in 4% formaldehyde at room temperature (RT) until transfer to paraffin. Paraffin-embedded tissue sections (3-4 μm) were dewaxed in xylene and alcohol. For Ly-6G and calbindin staining, antigen retrieval was done by pre-incubating deparaffinized samples with 0.05% proteinase K (Dako, Germany) in 50 mM Tris-HCl (pH 7.5) for 8 min at RT. CTSS and lysozyme were retrieved by boiling the sections in acidic condition for 30 min. Sections were incubated with anti-Ly-6G (20 μg/ml), anti-calbindin (1:1000), anti-CTSS (20 μg/ml) or anti-lysozyme (1:20) overnight at 4° C. Reagents were prepared according to the manufacturer's instructions (Vector laboratories). The staining protocol was followed as described previously (19). The secondary antibody for neutrophil staining was biotinylated rabbit anti-rat IgG (mouse absorbed, Vector Laboratories) and for Purkinje neurons was biotinylated horse anti-mouse IgG (Vector Laboratories).
For fluorescence microscopy, FITC-conjugated IgG (MP Biomedicals, Solon, Ohio, USA) was the secondary antibody. Sections stained only with secondary antibodies served as controls. Brightfield images were acquired on a Nikon Olympus microscope, using a Nikon digital DS-Fi1-U2 camera controlled by NIS-Elements F3.0 Nikon software (all from Nikon Instruments INC, Tokyo, Japan). Images were visualized with A10 PL 10×/0.25, or a DPIan Apo 40×/1.00 oil-immersion or a DPIan Apo 100×/1.30 oil-immersion objective lens (Nikon). Fluorescence microscopy and digital image collection were performed using an Olympus IX inverted fluorescence microscope and a Photometrix cooled CCD camera (CH350/LCCD) driven by DeltaVision software from Applied Precision (Seattle, Wash., USA). […] ImageJ (National Institute of Health, Bethesda, Md., USA) software was used to process and quantify the fluorescence intensity of CTSS and lysozyme. […]

[3] = system: Npc1^nih Npc1^−/− mouse liver; assay: Immunohistochemistry of liver sections after HPβCD; assay type: in vivo
Procedure: as §1
For fluorescence microscopy, FITC-conjugated IgG (MP Biomedicals, Solon, Ohio, USA) was the secondary antibody. Sections stained only with secondary antibodies served as controls. Brightfield images were acquired on a Nikon Olympus microscope, using a Nikon digital DS-Fi1-U2 camera controlled by NIS-Elements F3.0 Nikon software (all from Nikon Instruments INC, Tokyo, Japan). Images were visualized with A10 PL 10×/0.25, or a DPIan Apo 40×/1.00 oil-immersion or a DPIan Apo 100×/1.30 oil-immersion objective lens (Nikon). Fluorescence microscopy and digital image collection were performed using an Olympus IX inverted fluorescence microscope and a Photometrix cooled CCD camera (CH350/LCCD) driven by DeltaVision software from Applied Precision (Seattle, Wash., USA). DeltaVision software (softWoRx) was used to deconvolve these images. Images were visualized with 40× oil-immersion objective lens and are single optical sections. ImageJ (National Institute of Health, Bethesda, Md., USA) software was used to process and quantify the fluorescence intensity of CTSS and lysozyme.
(§2) Starting at P21 and once a week thereafter, Npc1^nih and Npc1^nmf164 mice were injected i.p with 20% 2-hydroxypropyl-beta-cyclodextrin (HPβCD, 4000 mg/Kg) prepared in 0.2% DMSO and 0.9% saline. Control mice received 0.2% DMSO in 0.9% saline. Blood was collected either via cheek bleed or terminal heart bleed from mice in EDTA tubes (BD Biosciences, San Jose, Calif., USA). Plasma was separated by centrifugation at 2500 rpm for 15 min and stored at −70° C. until used.

Npc1^nih mice [4] = assay: Onset of symptoms and survival of HPβCD-treated Npc1^nih mice; assay type: in vivo, mouse; conditions: weekly 4000 mg/Kg from P21
Procedure: as §2
To examine time points of advanced disease, we returned to the shorter, Npc1^nih model. This model typically manifests phenotypic symptoms (weight loss, gait, tremor etc.) from ˜50-55 days and survives up to ˜80-84 days (FIG. 18A). […] We therefore treated Npc1^−/− mice with HPβCD or vehicle control (0.2% DMSO in 0.9% saline) with once a week drug injections (4000 mg/Kg) starting at age P21. […] As reported earlier, the plasma lysozyme activity of vehicle treated Npc1^−/− mice was elevated on average 2-fold in early symptomatic (50-60 days) animals (FIG. 18B) and remained elevated at the late symptomatic stage (70 days) compared to age matched controls (FIG. 18C).

Compound: CC(O)COC[C@H]1O[C@@H]2O[C@H]3[C@H](O)[C@@H](O)[C@@H](O[C@H]4[C@H](O)[C@@H](O)[C@@H](O[C@H]5[C@H](O)[C@@H](O)[C@@H](O[C@H]6[C@H](O)[C@@H](O)[C@@H](O[C@H]7[C@H](O)[C@@H](O)[C@@H](O[C@H]8[C@H](O)[C@@H](O)[C@@H](O[C@H]1[C@H](O)[C@H]2O)O[C@@H]8COCC(C)O)O[C@@H]7COCC(C)O)O[C@@H]6COCC(C)O)O[C@@H]5COCC(C)O)O[C@@H]4COCC(C)O)O[C@@H]3COCC(C)O (stereo partly drawn) [HPβCD, 2-hydroxypropyl-beta-cyclodextrin]
- Lgals3 and Ctsd transcripts (Npc1^nih mice [1]; Npc1^−/− mice, Cluzeau et al., 2012): reduced
- disease and survival (Npc1^nih mice [1]; weekly injections to Npc1^nih, previous studies): ameliorates the disease and extend the survival; also recorded: reduce disease and extend the survival
- disease status (Npc1^pf/pf mice): improvement in disease status
- lysozyme levels in the cerebellum (white mater region) ([2]; FIG. 19E-F): no significant effect
- reduction of lysozyme in molecular layer of the cerebellum ([2]; FIG. 19I-K): ~25%
- reduction of CTSS levels in hippocampal neurons ([2]; ImageJ quantification): ~20%
- CTSS accumulation in liver ([3]; Npc1^−/− mice, anti-CTSS IHC): dramatically reduced
- accumulation of foamy macrophages in liver ([3]; Npc1^−/− mice, anti-CTSS IHC): eliminated accumulation of foamy macrophages; also recorded: eliminated the foamy macrophages and CTSS staining
- neutrophil clusters in liver ([3]; Npc1^−/− mice, anti-Ly-6G IHC, 50 and 80 days): reduced neutrophil clusters; also recorded: barely detected
- macrophages containing lysozyme in liver ([3]; Npc1^−/− mice, anti-lysozyme staining): largely eliminated
- hepatocyte architecture ([3]; animals treated with HPβCD, histochemistry): decreased cytoplasmic staining with slight irregular plasma membrane
- survival (Npc1^nih mice [4]; untreated up to ~80-84 days): 105 to 112 days
- onset of symptoms (Npc1^nih mice [4]; untreated ~49-56 days): 70 to 80 days
